#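 Assay format: 96-well plates, 48-hour exposure. At the GI50, growth is halved. TGI: concentration producing complete growth inhibition.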
# What was measured:
# Assay in all cases: inhibition of tumour cell growth, NCI panel, 48 h
# 786-0 renal = system: 786-0 renal
# A498 renal = system: A498 renal
# CCRF-CEM leukemia = system: CCRF-CEM leukemia
# COLO 205 colon = system: COLO 205 colon
# HCC-2998 colon = system: HCC-2998 colon
# HCT-116 colon = system: HCT-116 colon
# HL-60(TB) leukemia = system: HL-60(TB) leukemia
# HOP-92 NSCLC = system: HOP-92 NSCLC
# K-562 leukemia = system: K-562 leukemia
# LOX IMVI melanoma = system: LOX IMVI melanoma
# M14 melanoma = system: M14 melanoma
# MALME-3M melanoma = system: MALME-3M melanoma
# MCF7 breast = system: MCF7 breast
# MDA-MB-231 breast = system: MDA-MB-231 breast
# MDA-MB-435 = system: MDA-MB-435
# MOLT-4 leukemia = system: MOLT-4 leukemia
# NCI-H460 lung = system: NCI-H460 lung
# NCI-H522 lung = system: NCI-H522 lung
# NCI/ADR-RES ovarian = system: NCI/ADR-RES ovarian
# RPMI-8226 leukemia = system: RPMI-8226 leukemia
# RXF 393 renal = system: RXF 393 renal
# SF-539 CNS = system: SF-539 CNS
# SK-MEL-2 melanoma = system: SK-MEL-2 melanoma
# SK-MEL-28 melanoma = system: SK-MEL-28 melanoma
# SK-MEL-5 melanoma = system: SK-MEL-5 melanoma
# SNB-75 CNS = system: SNB-75 CNS
# SR leukemia = system: SR leukemia
# SW-620 colon = system: SW-620 colon
# TK-10 renal = system: TK-10 renal
# U251 CNS = system: U251 CNS
# UACC-257 melanoma = system: UACC-257 melanoma
# UACC-62 melanoma = system: UACC-62 melanoma
# UO-31 renal = system: UO-31 renal
# A549 NSCLC = system: A549 NSCLC
# ACHN renal = system: ACHN renal
# BT-549 breast = system: BT-549 breast
# CAKI-1 renal = system: CAKI-1 renal
# DU-145 prostate = system: DU-145 prostate
# EKVX NSCLC = system: EKVX NSCLC
# HCT-15 colon = system: HCT-15 colon
# HOP-62 NSCLC = system: HOP-62 NSCLC
# HS 578T breast = system: HS 578T breast
# HT29 colon = system: HT29 colon
# IGROV1 ovarian = system: IGROV1 ovarian
# KM12 colon = system: KM12 colon
# NCI-H226 lung = system: NCI-H226 lung
# NCI-H23 lung = system: NCI-H23 lung
# OVCAR-3 ovarian = system: OVCAR-3 ovarian
# OVCAR-4 ovarian = system: OVCAR-4 ovarian
# OVCAR-5 ovarian = system: OVCAR-5 ovarian
# OVCAR-8 ovarian = system: OVCAR-8 ovarian
# PC-3 prostate = system: PC-3 prostate
# SF-268 CNS = system: SF-268 CNS
# SF-295 CNS = system: SF-295 CNS
# SK-OV-3 ovarian = system: SK-OV-3 ovarian
# SN12C renal = system: SN12C renal
# SNB-19 CNS = system: SNB-19 CNS
# T-47D breast = system: T-47D breast
structure (smiles),measurement,setting,value
CC1COc2c(N3CCN(C)CC3)c(F)cc3c(=O)c(C(=O)N/N=C/c4cc[nH]c4)cn1c23 (configuration not stated),GI50,786-0 renal,1420 nM
same,TGI,786-0 renal,2850 nM
same,GI50,A498 renal,2220 nM
same,TGI,A498 renal,> 100000 nM
same,GI50,CCRF-CEM leukemia,959 nM
same,TGI,CCRF-CEM leukemia,2790 nM
same,GI50,COLO 205 colon,1270 nM
same,TGI,COLO 205 colon,2600 nM
same,GI50,HCC-2998 colon,518 nM
same,TGI,HCC-2998 colon,1890 nM
same,GI50,HCT-116 colon,712 nM
same,TGI,HCT-116 colon,2000 nM
same,GI50,HL-60(TB) leukemia,674 nM
same,TGI,HL-60(TB) leukemia,2590 nM
same,GI50,HOP-92 NSCLC,497 nM
same,TGI,HOP-92 NSCLC,36000 nM
same,GI50,K-562 leukemia,699 nM
same,TGI,K-562 leukemia,2350 nM
same,GI50,LOX IMVI melanoma,715 nM
same,TGI,LOX IMVI melanoma,2070 nM
same,GI50,M14 melanoma,1670 nM
same,TGI,M14 melanoma,3120 nM
same,GI50,MALME-3M melanoma,1040 nM
same,TGI,MALME-3M melanoma,2570 nM
same,GI50,MCF7 breast,417 nM
same,TGI,MCF7 breast,1650 nM
same,GI50,MDA-MB-231 breast,1480 nM
same,TGI,MDA-MB-231 breast,3000 nM
same,GI50,MDA-MB-435,1520 nM
same,TGI,MDA-MB-435,2910 nM
same,GI50,MOLT-4 leukemia,502 nM
same,TGI,MOLT-4 leukemia,2100 nM
same,GI50,NCI-H460 lung,767 nM
same,TGI,NCI-H460 lung,2080 nM
same,GI50,NCI-H522 lung,1240 nM
same,TGI,NCI-H522 lung,2640 nM
same,GI50,NCI/ADR-RES ovarian,> 100000 nM
same,TGI,NCI/ADR-RES ovarian,> 100000 nM
same,GI50,RPMI-8226 leukemia,2190 nM
same,TGI,RPMI-8226 leukemia,4580 nM
same,GI50,RXF 393 renal,1060 nM
same,TGI,RXF 393 renal,2350 nM
same,GI50,SF-539 CNS,1280 nM
same,TGI,SF-539 CNS,2610 nM
same,GI50,SK-MEL-2 melanoma,1570 nM
same,TGI,SK-MEL-2 melanoma,3010 nM
same,GI50,SK-MEL-28 melanoma,1470 nM
same,TGI,SK-MEL-28 melanoma,2830 nM
same,GI50,SK-MEL-5 melanoma,1400 nM
same,TGI,SK-MEL-5 melanoma,2710 nM
same,GI50,SNB-75 CNS,1480 nM
same,TGI,SNB-75 CNS,3470 nM
same,GI50,SR leukemia,841 nM
same,TGI,SR leukemia,3160 nM
same,GI50,SW-620 colon,1300 nM
same,TGI,SW-620 colon,2620 nM
same,GI50,TK-10 renal,5400 nM
same,TGI,TK-10 renal,96100 nM
same,GI50,U251 CNS,614 nM
same,TGI,U251 CNS,1980 nM
same,GI50,UACC-257 melanoma,1640 nM
same,TGI,UACC-257 melanoma,3120 nM
same,GI50,UACC-62 melanoma,1700 nM
same,TGI,UACC-62 melanoma,3160 nM
same,GI50,UO-31 renal,2710 nM
same,TGI,UO-31 renal,> 100000 nM
COc1ccc(C(C)=C(c2ccc(OCCN3CCCCCC3)cc2)c2ccc(OCCN3CCCCCC3)cc2)cc1,GI50,786-0 renal,606 nM
same,TGI,786-0 renal,1550 nM
same,GI50,A498 renal,2200 nM
same,TGI,A498 renal,4410 nM
same,GI50,A549 NSCLC,1230 nM
same,TGI,A549 NSCLC,3850 nM
same,GI50,ACHN renal,2090 nM
same,TGI,ACHN renal,4370 nM
same,GI50,BT-549 breast,2030 nM
same,TGI,BT-549 breast,4210 nM
same,GI50,CAKI-1 renal,1390 nM
same,TGI,CAKI-1 renal,3730 nM
same,GI50,CCRF-CEM leukemia,503 nM
same,TGI,CCRF-CEM leukemia,4320 nM
same,GI50,COLO 205 colon,375 nM
same,TGI,COLO 205 colon,948 nM
same,GI50,DU-145 prostate,2280 nM
same,TGI,DU-145 prostate,5730 nM
same,GI50,EKVX NSCLC,2340 nM
same,TGI,EKVX NSCLC,7200 nM
same,GI50,HCC-2998 colon,540 nM
same,TGI,HCC-2998 colon,2000 nM
same,GI50,HCT-116 colon,369 nM
same,TGI,HCT-116 colon,1110 nM
same,GI50,HCT-15 colon,488 nM
same,TGI,HCT-15 colon,1970 nM
same,GI50,HL-60(TB) leukemia,1020 nM
same,TGI,HL-60(TB) leukemia,2320 nM
same,GI50,HOP-62 NSCLC,1070 nM
same,TGI,HOP-62 NSCLC,3490 nM
same,GI50,HOP-92 NSCLC,843 nM
same,TGI,HOP-92 NSCLC,3890 nM
same,GI50,HS 578T breast,1120 nM
same,TGI,HS 578T breast,4560 nM
same,GI50,HT29 colon,545 nM
same,TGI,HT29 colon,2100 nM
same,GI50,IGROV1 ovarian,1870 nM
same,TGI,IGROV1 ovarian,4280 nM
same,GI50,K-562 leukemia,338 nM
same,TGI,K-562 leukemia,825 nM
same,GI50,KM12 colon,1220 nM
same,TGI,KM12 colon,4010 nM
same,GI50,LOX IMVI melanoma,177 nM
same,TGI,LOX IMVI melanoma,427 nM
same,GI50,M14 melanoma,270 nM
same,TGI,M14 melanoma,515 nM
same,GI50,MALME-3M melanoma,300 nM
same,TGI,MALME-3M melanoma,616 nM
same,GI50,MCF7 breast,177 nM
same,TGI,MCF7 breast,579 nM
same,GI50,MDA-MB-231 breast,1360 nM
same,TGI,MDA-MB-231 breast,3950 nM
same,GI50,MDA-MB-435,422 nM
same,TGI,MDA-MB-435,1170 nM
same,GI50,MOLT-4 leukemia,436 nM
same,TGI,MOLT-4 leukemia,1290 nM
same,GI50,NCI-H226 lung,2320 nM
same,TGI,NCI-H226 lung,5330 nM
same,GI50,NCI-H23 lung,2670 nM
same,TGI,NCI-H23 lung,9520 nM
same,GI50,NCI-H460 lung,635 nM
same,TGI,NCI-H460 lung,2180 nM
same,GI50,NCI-H522 lung,2650 nM
same,TGI,NCI-H522 lung,6100 nM
same,GI50,NCI/ADR-RES ovarian,2070 nM
same,TGI,NCI/ADR-RES ovarian,4550 nM
same,GI50,OVCAR-3 ovarian,1870 nM
same,TGI,OVCAR-3 ovarian,4070 nM
same,GI50,OVCAR-4 ovarian,2430 nM
same,TGI,OVCAR-4 ovarian,5900 nM
same,GI50,OVCAR-5 ovarian,2440 nM
same,TGI,OVCAR-5 ovarian,8260 nM
same,GI50,OVCAR-8 ovarian,2620 nM
same,TGI,OVCAR-8 ovarian,6820 nM
same,GI50,PC-3 prostate,1720 nM
same,TGI,PC-3 prostate,4820 nM
same,GI50,RPMI-8226 leukemia,443 nM
same,TGI,RPMI-8226 leukemia,1090 nM
same,GI50,RXF 393 renal,646 nM
same,TGI,RXF 393 renal,2560 nM
same,GI50,SF-268 CNS,1710 nM
same,TGI,SF-268 CNS,5070 nM
same,GI50,SF-295 CNS,447 nM
same,TGI,SF-295 CNS,1310 nM
same,GI50,SF-539 CNS,1020 nM
same,TGI,SF-539 CNS,2990 nM
same,GI50,SK-MEL-2 melanoma,2950 nM
same,TGI,SK-MEL-2 melanoma,6340 nM
same,GI50,SK-MEL-28 melanoma,312 nM
same,TGI,SK-MEL-28 melanoma,593 nM
same,GI50,SK-MEL-5 melanoma,1310 nM
same,TGI,SK-MEL-5 melanoma,3470 nM
same,GI50,SK-OV-3 ovarian,2550 nM
same,TGI,SK-OV-3 ovarian,5230 nM
same,GI50,SN12C renal,2090 nM
same,TGI,SN12C renal,4800 nM
same,GI50,SNB-19 CNS,1360 nM
same,TGI,SNB-19 CNS,4020 nM
same,GI50,SNB-75 CNS,2060 nM
same,TGI,SNB-75 CNS,5230 nM
same,GI50,SR leukemia,306 nM
same,TGI,SR leukemia,773 nM
same,GI50,SW-620 colon,450 nM
same,TGI,SW-620 colon,1480 nM
same,GI50,T-47D breast,628 nM
same,TGI,T-47D breast,4550 nM
same,GI50,TK-10 renal,3120 nM
same,TGI,TK-10 renal,6730 nM
same,GI50,U251 CNS,524 nM
same,TGI,U251 CNS,1830 nM
same,GI50,UACC-257 melanoma,587 nM
same,TGI,UACC-257 melanoma,1590 nM
same,GI50,UACC-62 melanoma,869 nM
same,TGI,UACC-62 melanoma,2050 nM
same,GI50,UO-31 renal,1780 nM
same,TGI,UO-31 renal,3970 nM
